Where two headings read alike, the source gives them in different places.
Assays:
Assay type in all cases: cell-based
[1] = system: VERO; assay: Anti-proliferation IC50, VERO; conditions: Chlorocebus sabaeus
[2] = system: Hep-G2; assay: Anti-proliferation IC50, Hep-G2; conditions: Homo sapiens, HepG2
[3] = system: MDA-MB-231; assay: Anti-proliferation IC50, MDA-MB-231; conditions: Homo sapiens
[4] = system: A549; assay: Anti-proliferation IC50, A549; conditions: Homo sapiens
[5] = system: MRC-5; assay: Anti-proliferation IC50, MRC-5; conditions: Homo sapiens, MRC5; Table 2, compounds of formula II
[6] = system: MCF-7; assay: Anti-proliferation IC50, MCF-7; conditions: Homo sapiens, MCF7; Anti-proliferation IC50 for the new compounds; read-out: MCF-7 (IC50 μM)
[7] = Table 2, compounds of formula II, read-out: Anti-proliferation IC50 VERO
[8] = Table 2, compounds of formula II, read-out: Anti-proliferation IC50 Hep-G2
[9] = Table 2, compounds of formula II, read-out: Anti-proliferation IC50 A549
[10] = Anti-proliferation IC50 for the new compounds, read-out: VERO (IC50 μM)
[11] = Anti-proliferation IC50 for the new compounds, read-out: Hep-G2 (IC50 μM)
[12] = Anti-proliferation IC50 for the new compounds, read-out: MDA-MB-231 (IC50 μM)

SMILES	IC50 [1, 7] [µM]	IC50 [2, 8] [µM]	IC50 ([3]; Table 2, compounds of formula II, read-out: Anti-proliferation IC50 MDA-MB-231) [µM]	IC50 [4, 9] [µM]	IC50 [5] [µM]	IC50 [1, 10] [µM]	IC50 [2, 11] [µM]	IC50 [3, 12] [µM]	IC50 ([4]; Anti-proliferation IC50 for the new compounds, read-out: A549 (IC50 μM)) [µM]	IC50 [6] [µM]
CC[C@@H]1OC(=O)[C@@H](C)[C@H](O)[C@@H](C)[C@H](O[C@@H]2O[C@H](C)C[C@H](N(C)C)[C@H]2OC(=O)CCCC[C@H]2CCSS2)C(C)(O)C[C@H](C)CN(C)[C@@H](C)[C@H](O)[C@@]1(C)O (stereo partly drawn)	273 ± 26.9	225 ± 12.8	400 ± 32.4	282 ± 14.3	143 ± 17.1					
CC[C@H]1OC(=O)[C@H](C)[C@@H](O[C@H]2C[C@@](C)(OC)[C@@H](O)[C@H](C)O2)[C@H](C)[C@@H](O[C@@H]2O[C@H](C)C[C@H](N(C)C)C2OC(=O)CCCCC(CCSCc2ccccc2)SCc2ccccc2)[C@](C)(O)C[C@@H](C)CN(C)[C@H](C)[C@@H](O)[C@]1(C)O (stereo partly drawn) [AO-03-032]						10.4	4.2	6.4	7.6	
CC[C@H]1OC(=O)[C@H](C)[C@@H](O[C@H]2C[C@@](C)(OC)[C@@H](O)[C@H](C)O2)[C@H](C)[C@@H](O[C@@H]2O[C@H](C)C[C@H](N(C)C(=O)CCCCC(CCSCc3ccccc3)SCc3ccccc3)[C@H]2O)[C@](C)(O)C[C@@H](C)CN(C)[C@H](C)[C@@H](O)[C@]1(C)O (stereo partly drawn) [AZM-613]						6.5	2.9	2.1		2.8
CC[C@H]1OC(=O)[C@H](C)[C@@H](O[C@H]2C[C@@](C)(OC)[C@@H](O)[C@H](C)O2)[C@H](C)[C@@H](O[C@@H]2O[C@H](C)C[C@H](N(C)Cc3ccc(-n4cc(C)ccc4=O)cc3)[C@H]2O)[C@](C)(O)C[C@@H](C)CN(C)[C@H](C)[C@@H](O)[C@]1(C)O [Compound 11a]	47.2 ± 0.4	33 ± 5.4		47.2 ± 5.1	55.8 ± 1.9					
CC[C@H]1OC(=O)[C@H](C)[C@@H](O[C@H]2C[C@@](C)(OC)[C@@H](O)[C@H](C)O2)[C@H](C)[C@@H](O[C@@H]2O[C@H](C)C[C@H](N(C)Cc3cn(Cc4ccc(-n5cc(C)ccc5=O)cc4)nn3)[C@H]2O)[C@](C)(O)C[C@@H](C)CN(C)[C@H](C)[C@@H](O)[C@]1(C)O [Compound 11b]	122 ± 19.4	234 ± 31.1		265 ± 4	121 ± 14.1					
CC[C@H]1OC(=O)[C@H](C)[C@@H](O[C@H]2C[C@@](C)(OC)[C@@H](O)[C@H](C)O2)[C@H](C)[C@@H](O[C@@H]2O[C@H](C)C[C@H](N(C)Cc3ccc(-c4cn(Cc5ccc(-n6cc(C)ccc6=O)cc5)nn4)cc3)[C@H]2O)[C@](C)(O)C[C@@H](C)CN(C)[C@H](C)[C@@H](O)[C@]1(C)O [Compound 11c]	16.2 ± 2.8	11.1 ± 0.3		18.4 ± 4.4	13.4 ± 0.1					
CC[C@H]1OC(=O)[C@H](C)[C@@H](O[C@H]2C[C@@](C)(OC)[C@@H](O)[C@H](C)O2)[C@H](C)[C@@H](O[C@@H]2O[C@H](C)C[C@H](N(C)CCc3ccc(-n4cc(C)ccc4=O)cc3)[C@H]2O)[C@](C)(O)C[C@@H](C)CN(C)[C@H](C)[C@@H](O)[C@]1(C)O [Compound 13a]	30.3 ± 5.2	27.2 ± 2.3		40.8 ± 4	36.1 ± 3.3					
CC[C@H]1OC(=O)[C@H](C)[C@@H](O[C@H]2C[C@@](C)(OC)[C@@H](O)[C@H](C)O2)[C@H](C)[C@@H](O[C@@H]2O[C@H](C)C[C@H](N(C)Cc3cn(CCc4ccc(-n5cc(C)ccc5=O)cc4)nn3)[C@H]2O)[C@](C)(O)C[C@@H](C)CN(C)[C@H](C)[C@@H](O)[C@]1(C)O [Compound 13b]	151 ± 30.6	163.4 ± 1.6		144 ± 24.5	172 ± 26.9					
CC[C@H]1OC(=O)[C@H](C)[C@@H](O[C@H]2C[C@@](C)(OC)[C@@H](O)[C@H](C)O2)[C@H](C)[C@@H](O[C@@H]2O[C@H](C)C[C@H](N(C)Cc3ccc(-c4cn(CCc5ccc(-n6cc(C)ccc6=O)cc5)nn4)cc3)[C@H]2O)[C@](C)(O)C[C@@H](C)CN(C)[C@H](C)[C@@H](O)[C@]1(C)O [Compound 13c]	22.6 ± 4.9	21.8 ± 0.4		15.8 ± 3	13.3 ± 0.9					
CC[C@H]1OC(=O)[C@H](C)[C@@H](O[C@H]2C[C@@](C)(OC)[C@@H](O)[C@H](C)O2)[C@H](C)[C@@H](O[C@@H]2O[C@H](C)C[C@H](N(C)CCCCc3ccc(-n4cc(C)ccc4=O)cc3)[C@H]2O)[C@](C)(O)C[C@@H](C)CN(C)[C@H](C)[C@@H](O)[C@]1(C)O [Compound 15a]	23.9 ± 1.7	52.2 ± 1		43.2 ± 5.7	5.9 ± 0.1					
CC[C@H]1OC(=O)[C@H](C)[C@@H](O[C@H]2C[C@@](C)(OC)[C@@H](O)[C@H](C)O2)[C@H](C)[C@@H](O[C@@H]2O[C@H](C)C[C@H](N(C)Cc3cn(CCCCc4ccc(-n5cc(C)ccc5=O)cc4)nn3)[C@H]2O)[C@](C)(O)C[C@@H](C)CN(C)[C@H](C)[C@@H](O)[C@]1(C)O [Compound 15b]	53.2 ± 0.1	27.7 ± 3.3		35.2 ± 5.4	36.1 ± 6.1					
CC[C@H]1OC(=O)[C@H](C)[C@@H](O[C@H]2C[C@@](C)(OC)[C@@H](O)[C@H](C)O2)[C@H](C)[C@@H](O[C@@H]2O[C@H](C)C[C@H](N(C)Cc3ccc(-c4cn(CCCCc5ccc(-n6cc(C)ccc6=O)cc5)nn4)cc3)[C@H]2O)[C@](C)(O)C[C@@H](C)CN(C)[C@H](C)[C@@H](O)[C@]1(C)O [Compound 15c]	5.9 ± 0.1	2.6 ± 0.1		5 ± 0.2	5.7 ± 0.1					
CC[C@H]1OC(=O)[C@H](C)[C@@H](O[C@H]2C[C@@](C)(OC)[C@@H](O)[C@H](C)O2)[C@H](C)[C@@H](O[C@@H]2O[C@H](C)C[C@H](N(C)CC#Cc3ccc(-n4cc(C)ccc4=O)cc3)[C@H]2O)[C@](C)(O)C[C@@H](C)CN(C)[C@H](C)[C@@H](O)[C@]1(C)O [Compound 20a]	71.4 ± 6.3	53.4 ± 3.3		55.9 ± 6.4	23.3 ± 3.3					
CC[C@H]1OC(=O)[C@H](C)[C@@H](O[C@H]2C[C@@](C)(OC)[C@@H](O)[C@H](C)O2)[C@H](C)[C@@H](O[C@@H]2O[C@H](C)C[C@H](N(C)CCC#Cc3ccc(-n4cc(C)ccc4=O)cc3)[C@H]2O)[C@](C)(O)C[C@@H](C)CN(C)[C@H](C)[C@@H](O)[C@]1(C)O [Compound 20b]	28.5 ± 1.8	24.8 ± 1.7		31.2 ± 4.8	19.1 ± 2.6					
CC[C@H]1OC(=O)[C@H](C)[C@@H](O[C@H]2C[C@@](C)(OC)[C@@H](O)[C@H](C)O2)[C@H](C)[C@@H](O[C@@H]2O[C@H](C)C[C@H](N(C)CCCC#Cc3ccc(-n4cc(C)ccc4=O)cc3)[C@H]2O)[C@](C)(O)C[C@@H](C)CN(C)[C@H](C)[C@@H](O)[C@]1(C)O [Compound 20c]	36.4 ± 3.8	45.2 ± 7.4		42.7 ± 8.4	41.7 ± 0.1					
CC[C@H]1OC(=O)[C@H](C)[C@@H](O[C@H]2C[C@@](C)(OC)[C@@H](O)[C@H](C)O2)[C@H](C)[C@@H](O[C@@H]2O[C@H](C)C[C@H](N(C)CCCCC#Cc3ccc(-n4cc(C)ccc4=O)cc3)[C@H]2O)[C@](C)(O)C[C@@H](C)CN(C)[C@H](C)[C@@H](O)[C@]1(C)O [Compound 20d]	16.2 ± 3.1	12.7 ± 1.3		15.5 ± 1.1	5.5 ± 0.2					
CC[C@H]1OC(=O)[C@H](C)[C@@H](O[C@H]2C[C@@](C)(OC)[C@@H](O)[C@H](C)O2)[C@H](C)[C@@H](O[C@@H]2O[C@H](C)C[C@H](N(C)CCCCCC#Cc3ccc(-n4cc(C)ccc4=O)cc3)[C@H]2O)[C@](C)(O)C[C@@H](C)CN(C)[C@H](C)[C@@H](O)[C@]1(C)O [Compound 20e]	4.7 ± 0.3	2.8		6.1 ± 0.3	2.2 ± 0.1					

— patent publication US20240076293A1, “Compositions and Methods for Inhibiting Fibrosis, Inflammation and Cancer” (Georgia Tech Research Corporation, priority 2020, published 2024)
